Experimental data taken from patent US6734161B1, “Peptide nucleic acids having antibacterial activity” (priority 1997, dated 2004).
pIC50: −log10 of the molar value. {LysNH2} = C-terminal lysine amide

Key:
[1] = system: β-Galactosidase (start codon region); experiment: in vitro coupled transcription/translation in E. coli S-30 cell extract, β-galactosidase production; assay type: biochemical
Procedure: (§1) Strain D10-1 was grown to mid log phase in LB media supplemented with 4 g/L glucose. The preparation of S-30 cell extracts and coupled transcription/translation reactions were carried out as described in Ellman, J., ibid., using plasmid pMAS2, which carries the E. coli gene for β-galactosidase.
PNA oligomers (SEQ ID NOs. 5-8 above) were evaluated in an in vitro assay in which plasmid DNA encoding the genes for β-galactosidase and β-lactamase were added to a template depleted e. coli S-30 cell extract along with the reagents necessary for coupled transcription and translation (Chen, H. Z., Zubay, G., Methods in Enzymol., 1983, 101, 674-690; Ellman, J., et al., Methods in Enzymol., 1991, 202, 301-337). The assay is sensitive to inhibitors that prevent initiation of translation.

β-lactamase = conditions: for inhibition of β-lactamase production in strain carrying two base substitutions: AS19 transformed with pLac-2, compared with pBR322; for inhibition of β-lactamase production in strain carrying 6 base substitutions: AS19 transformed with pLac-6
Procedure: The cultures were grown at 37° C. to approximately 0.5 O.D. 550 nm. β-Lactamase activity was determined using the chromogenic β-lactamase substrate PADAC (Calbiochem, San Diego, Calif.) and absorbance measurements at 570 nm (Kobayashi, et al., Antimicrob. Agents Chemotherap., 1988, 32, 1040). β-Galactosidase activity was determined using the substrate o-nitrophenyl-β-galactoside (ONPG) and absorbance measurements at 420 nm as described previously (Miller, J. H., Experiments in Molecular Genetics, 1972, Cold Spring Harbor, N.Y., 1972, 82-85).
The cultures were grown at 37° C. to approximately 0.5 O.D. 550 nm.
The activity of PNAs in an in vivo assay was determined. […] 5-8 were included in cultures of permeable E. coli strain AS19 (Sekiguchi, ibid.) and the expression of β-galactosidase and β-lactamase was measured in cells exposed to IPTG at various time points.
The inhibition of β-lactamase production was evaluated by growing cells in the presence of PNA from an early stage to mid log phase.
The in vivo specificity of selected PNAs (SEQ ID NOs. 6 and 7) was determined using E. coli AS19 that was transformed with pBR322 and its derivatives containing the target site mutations (pLac-2 and pLac-6).

[2] = system: β-lactamase (start codon region); assay type: biochemical, E. coli; conditions: for pIC50: read-out: PNA concentration required for 50 % inhibition (IC50) of β-lactamase activity, S-30 cell extract, unmodified gene
Ribosomal RNAs [3] = experiment: cell-free translation assay (β-galactosidase production) with PNA targeted to ribosomal RNAs; assay type: biochemical, E. coli; conditions: S-30 cell extract, ONPG
Procedure: as §1
Plasmid DNA encoding β-galactosidase was added to a template depleted E. coli S-30 cell extract along with the reagents necessary for coupled transcription/translation (Chen, ibid; Ellman, J., ibid). Production of β-galactosidase was measured […] using the substrate ONPG (Miller, ibid). The assay is sensitive to inhibitors that prevent complete or accurate translation of the enzyme. Several of the targeted PNAs inhibited β-galactosidase production in a dose dependent manner, with IC50s in the nanomolar range. […] The SEQ ID Nos. and the sequences are shown below in Table 2.
PNAs of similar composition, but unrelated sequence, were assayed along with targeted PNAs as controls for non-sequence specific effects. […] No inhibition was detected at a dose of 1 μM for the control PNAs.

[4] = system: E. coli mutant strain (AS19); experiment: cell growth assay using E. coli (AS19); conditions: 100 μL liquid cultures
Procedure: Growth assays were initiated using Luria Broth (LB) Media inoculated with 1% (v/v) of an overnight E. coli culture. […] For liquid media cultures, 100 μL of inoculated LB media was aliquoted into microtitre plate wells containing PNA or antibiotic solutions and the plates were incubated overnight at 37° C. The presence or absence of growth was assessed visually as a zone of clearing on solid media or as a lack of turbidity in liquid cultures.
The assay was repeated with the cells in 100 μL liquid cultures. […] The inhibition was determined to be that concentration which visibly limited the growth of the E. coli in a 100 μL culture.

Ribosomal RNAs [5] = experiment: transcription vs. translation assay (32P-UTP and 35S-methionine incorporation); assay type: biochemical, E. coli; conditions: increasing concentrations of PNA
Procedure: Transcription in the cell-free system was assayed using reactions that contained 34 μM of cold UTP and 1 μCi ^32P-UTP. After 30 minutes the reactions were stopped with 10 volumes of 5% TCA and incubated on ice for 30 minutes. Translation in the cell-free system was assayed using reactions that contained 5 mM cold UTP and 1 μCi ^35S-methionine. After 30 minutes the reactions were stopped with an equal volume of 1 M NaOH and placed at 37° C. for 15 minutes. An equal volume of cold 50% TCA containing 2% casein hydrolysate acids was added and after 30 minutes on ice, 1 mL of 5% TCA was added. The TCA precipitable material having radioactivity was collected by vacuum filtration, rinsed five times with 5% TCA and dried. Cerenkov and scintillation counting were used to determine ^32P-UTP and ^35S-methionine incorporation.
The transcription and translation activities yielding β-galactosidase was examined using ^32P-UTP and ^35S-methionine in the assay procedures of Example 5. With increasing concentrations of targeted PNA (SEQ ID NOs. 12 and 13), the level of radioactive methionine incorporation was reduced.

E. coli strain K12 = experiment: cell growth assay using E. coli (K12); conditions: 2 μL applied onto solid media, overnight 37° C.
Procedure: Growth assays were initiated using Luria Broth (LB) Media inoculated with 1% (v/v) of an overnight E. coli culture. For solid media cultures, 2 mL of molten LB/agar media was inoculated and spread onto pre-warmed (LB)/agar plates. The excess molten media was poured off and the plates were left to solidity for 30 minutes. PNA and antibiotic solutions were pipetted (2 μL) directly onto the solidified overlay and the plates were incubated overnight at 37° C. For liquid media cultures, 100 μL of inoculated LB media was aliquoted into microtitre plate wells containing PNA or antibiotic solutions and the plates were incubated overnight at 37° C. The presence or absence of growth was assessed visually as a zone of clearing on solid media or as a lack of turbidity in liquid cultures.
The inhibition of cell growth was examined using PNA sequences 9-18 in E. coli grown on agar media. Luria broth (LB)/agar plates were prepared with a thin overlay of media containing an inoculum of E. coli strain K12. PNA solutions were applied directly onto the solidified overlay by direct pipetting of 2 μL aliquotes. After overnight incubation at 37° C., a lawn of bacterial cells was established.

[6] = system: E. coli lac repressor gene (start codon region); experiment: PNA-mediated upregulation of beta-galactosidase on X-gal LB/agar plate; assay type: cell-based; conditions: lawn of E. coli AS19 on LB/agar with X-gal
Procedure: An antisense PNA (H-[…]-Lys-NH2, SEQ ID No: 27) was prepared targeting the start codon region of the E. coli lac repressor gene. The lacR gene normally limits beta-galactosidase expression in E. coli cells that are grown in nutrient rich conditions, without lactose. The anti-lacR PNA (SEQ ID No: 27) was applied to a lawn of E. coli AS19 cells grown on a LB/agar plate containing a chromogenic beta-galactosidase substrate (X-gal). The petri plate was prepared as described above.

[7] = concentrations as high as 400 nM

Substance: 5 (GGTCATAGCTGTTTC; all peptide nucleic acid (PNA), 3' {LysNH2}; further chemistry not fully specified) [compound 5]
- pIC50 ([1]; read-out: PNA concentration required for 50 % inhibition (IC50) of β-galactosidase activity, S-30 cell extract, coupled transcription and translation): 8.00

Substance: 6 (TACTCATACTCTTCC; chemistry not given here) [compound 6]
- inhibition of β-lactamase production in strain carrying two base substitutions (β-lactamase): reduced
- inhibition of β-lactamase production in strain carrying 6 base substitutions (β-lactamase): abolished
- pIC50 [2]: 7.52

Substance: 7 (GAATACTCATACTCT; chemistry not given here) [compound 7]
- inhibition of β-lactamase production in strain carrying two base substitutions (β-lactamase): reduced
- inhibition of β-lactamase production in strain carrying 6 base substitutions (β-lactamase): abolished
- pIC50 [2]: 6.70

Substance: 8 (ACGCCACATCTTCGC; chemistry not given here) [compound 8]
- inhibition of β-galactosidase production [1, 7]: no inhibition
- inhibition of β-lactamase production [2, 7]: no inhibition

Substance: 12 (TTNTNNNTTTNTNTCTTTCCGTCTT; listed as DNA, chemistry not given here) [compound 12]
- pIC50 (Ribosomal RNAs [3]): 6.70
- concentration which visibly limited growth [4]: 30 µM
- level of radioactive UTP (transcription) (Ribosomal RNAs [5]): remained the same
- level of radioactive methionine incorporation (translation) (Ribosomal RNAs [5]): reduced
- growth inhibition (zones of clearing) (E. coli strain K12): inhibited cell growth

Substance: 13 (NTNTNNTNTCCTCTC; listed as DNA, chemistry not given here) [compound 13]
- pIC50 (Ribosomal RNAs [3]): 6.46
- concentration which visibly limited growth [4]: 10 µM
- level of radioactive UTP (transcription) (Ribosomal RNAs [5]): remained the same
- level of radioactive methionine incorporation (translation) (Ribosomal RNAs [5]): reduced
- growth inhibition (zones of clearing) (E. coli strain K12): inhibited cell growth

Substance: 27 (ACATTCACCACCCTG; all peptide nucleic acid (PNA), 3' {LysNH2}; further chemistry not fully specified) [compound 27]
- beta-galactosidase production (blue zone at sites of application) [6]: Increased beta-galactosidase production
